Experimental findings from US20100094026A1, “METHOD OF SCREENING COMPOUND USEFUL IN TREATING ALLERGIC DISEASE” (REVERSE PROTEOMICS RESEARCH INSTITUTE CO., LTD., priority 2005, published 2010) are described below.

Structures can show the parent of a compound that is named as a salt.

This assay addresses T1, Standard Human Vimentin (Homo sapiens, UniProt P08670).
T1 construct: purchased PROGEN Biotechnik 62015
In words: Measurement of Kd value between Vimentin and Intal with Biacore (SPR). Conditions: SPR on Biacore3000; Intal PEG amine immobilized on CM5 chip; Vimentin 0.29 nM to 4.6 μM infused for 5 min. The class given is binding. The method, then:
Intal PEG amine synthesized as above was immobilized to Biacore CM5 chip (#BR-1000-14), according to a method described in BIAapplications Handbook (published by Biacore).
Control data was obtained by using a chip to which 2-ethanolamine was immobilized by the same way.
As Vimentin, Standard Human Vimentin (cat. No. 62015) purchased from PROGEN Biotechnik was subjected to buffer exchange by Running buffer(0.25 M Sucrose, 25 mM Tris-HCl pH7.5, 0.3 mM sodium N,N-diethyldithiocarbamate, 25 mM urea, 1 mM calcium chloride) and used to measure Kd.
The measurement of Kd was performed by SPR (surface plasmon resonance) spectrum measurement on Biacore3000 (Biacore). The above-mentioned Running buffer was run through the Intal-immobilized CM5 chip prepared by the above-mentioned procedure at 20 μl per min. Thereto, each sample which was prepared by gradually diluting the Vimentin prepared by the above-mentioned procedure (0.29 nM to 4.6 μM) was infused for 5 min., and the obtained SPR spectrum was analyzed by BIAevaluation software Ver.
A general note: Surface plasmon resonance follows binding to a sensor surface in real time, without labels.

T1 sequence (P08670 whole entry): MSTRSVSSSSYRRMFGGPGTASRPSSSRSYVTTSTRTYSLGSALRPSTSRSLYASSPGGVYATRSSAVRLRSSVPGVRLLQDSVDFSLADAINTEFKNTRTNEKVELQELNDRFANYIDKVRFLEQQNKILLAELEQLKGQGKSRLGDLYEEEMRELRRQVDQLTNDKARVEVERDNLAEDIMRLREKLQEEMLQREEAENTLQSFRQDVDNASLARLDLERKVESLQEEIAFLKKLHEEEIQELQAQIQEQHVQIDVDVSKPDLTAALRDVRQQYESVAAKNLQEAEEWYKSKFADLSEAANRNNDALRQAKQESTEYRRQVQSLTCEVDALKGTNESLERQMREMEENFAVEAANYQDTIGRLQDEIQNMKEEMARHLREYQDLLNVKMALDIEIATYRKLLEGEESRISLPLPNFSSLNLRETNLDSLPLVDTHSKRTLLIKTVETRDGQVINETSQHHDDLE

The Kd is the equilibrium constant for the complex coming apart. A high value points to a looser complex. The molecule `O=C(O)c1cc(=O)c2c(OCC(O)COc3cccc4oc(C(=O)O)cc(=O)c34)cccc2o1` [Intal, disodium salt of 1,3-bis(2-carboxychromon-5-yloxy)-2-hydroxypropane] displayed a Kd of 56 nM.
